In patent publication EP4060021A1, “MIMETIC MICROBIOLOGICAL CULTURE MEDIUM AND USES THEREOF” (BIOFILM PHARMA, priority 2021, dated 2022):
In brackets after ≈: the same amount, converted by molar mass.

Experiments:
[1] = system: souches de S. aureus issues de prélèvements de plaies du pied infectées chez des patients diabétiques; assay: Antibiotic susceptibility test (MIC, 96-well microplate, OD 600 nm) in Mueller-Hinton medium (MH); assay type: cell-based; design: key to Classification (S) ou (R) en MH: S (sensible); R (résistante); details: for MIC: Staphylococcus aureus, read-out: CMI en milieu MH
Description: (§1) • La Figure 1 représente des courbes de croissance de bactéries en fonction du milieu de culture. Sur cette figure, les ordonnées correspondent au logarithme d'unités formant colonie par millilitre de milieu de culture (Log UFC/ml) et les abscisses, au temps en heure (H). La Figure 1A représente les courbes correspondant à la croissance de 2 souches de S. aureus, Newman (gauche) et SAC1 (droite), dans le milieu BHI (courbe avec indicateurs ronds) et un exemple de milieu selon l'invention (MP) (courbe avec indicateurs carrés). La Figure 1B représente les courbes correspondant à la croissance de 2 souches de P. aeruginosa, PAO1 (gauche) et PAC1 (droite), dans le milieu BHI (courbe avec indicateurs ronds) et un exemple de milieu selon l'invention (MP) (courbe avec indicateurs carrés). La Figure 1C représente les courbes correspondant à la croissance de 2 souches cliniques S. aureus SAC1 et P. aeruginosa PAC1, en coculture dans le milieu BHI (P. aeruginosa BHI ou S. aureus BHI) et un exemple de milieu selon l'invention (MP) (P. aeruginosa MP ou S. aureus MP). La mesure de différence significative, réalisée par le test de Student, entre les valeurs d'UFC/mL est exprimée, soit par (***) qui correspond à une p-value <0,001, soit par (**) qui correspond à une p-value <0,01. • La Figure 2 représente les résultats obtenus d'une détermination de l'adhésion et de la formation de biofilm par dénombrement à 24h. Sur cette figure, les ordonnées correspondent au logarithme d'unités formant colonie par millilitre de milieu de culture (Log UFC/ml). La Figure 2A représente un histogramme ou diagramme en bâton du nombre de bactéries dénombrées suite à des cultures séparées de souche S. aureus Newman (Newman), S. aureus SAC1 (SAC 1), P. aeruginosa PAO1 (PAO1) ou P. aeruginosa PAC1 (PAC1), pendant 24H dans un milieu BHI (BHI) (bâtons noirs) ou dans un exemple de milieu selon l'invention (MP) (bâtons gris). La Figure 2B montre sous forme d'histogramme le nombre de bactéries dénombrées suite à des co-cultures des souches de référence S. aureus Newman et P. aeruginosa PAO1 (PAO1/Newman), ainsi que du couple de souches cliniques S. aureus SAC1 et P. aeruginosa PAC1 (PAC 1/SAC1), pendant 24H dans un milieu BHI (BHI) (bâtons noirs) ou dans un exemple de milieu selon l'invention (MP) (bâtons gris). La mesure de différence significative, réalisée par le test de Student, entre les valeurs d'UFC est exprimée, soit par (***) qui correspond à une p-value <0,001, soit par (**) qui correspond à une p-value <0,01. • La Figure 3 représente les résultats obtenus d'une détermination de sensibilité à des antibiotiques de souches cliniques de S. aureus issues d'infections de plaies du pied chez le diabétique. Les données cliniques, anonymisées, nécessaires à l'interprétation des résultats, consistaient en l'antibiothérapie donnée au patient, ainsi que la qualification par les médecins hospitaliers d'un succès ou échec thérapeutique. La définition de succès ou échec thérapeutique est définie comme suit. Le patient commence et suit l'antibiothérapie prescrite et un deuxième prélèvement microbiologique est effectué lors du dernier jour de traitement de la 1ère antibiothérapie (± 2 jours). Ce prélèvement est utilisé pour déterminer la présence/absence du pathogène ciblé par l'antibiothérapie, S. aureus. Si ce prélèvement a montré la persistance d'un S. aureus, l'antibiothérapie est en échec. A l'inverse, en cas d'absence de S. aureus, l'antibiothérapie est associée à un succès thérapeutique. Les antibiogrammes ont été réalisés classiquement sur une durée de 18h ± 2h en accord avec les recommandations de l'EUCAST. Une gamme de l'antibiotique à tester a été réalisée. • La Figure 3A montre sous forme d'histogramme les résultats des CMI déduites d'antibiogrammes sur 11 souches testées en présence d'amoxicilline / clavulanate de potassium (commercialisé par exemple sous le nom d'Augmentin (marque déposée)).

[2] = system: souches de S. aureus issues de prélèvements de plaies du pied infectées chez des patients diabétiques; assay: Antibiotic susceptibility test (MIC, 96-well microplate, OD 600 nm) in wound medium of the invention (MP); assay type: cell-based; details: for MIC: Staphylococcus aureus, read-out: CMI en milieu plaie MP
Description: as §1

Molecule: CCC[C@@H]1C[C@@H](C(=O)N[C@@H]([C@H]2O[C@H](SC)[C@H](O)[C@@H](O)[C@H]2O)[C@H](C)Cl)N(C)C1 [clindamycine]
- MIC ([1]; souche C01P009): 0.25 µg/mL (≈ 0.588 µM)
- MIC ([1]; souche C01P010): 0.25 µg/mL (≈ 0.588 µM)
- MIC ([1]; souche C03P003): 0.25 µg/mL (≈ 0.588 µM)
- MIC ([1]; souche C03P004): 0.25 µg/mL (≈ 0.588 µM)
- MIC ([1]; souche C03P005): 0.25 µg/mL (≈ 0.588 µM)
- MIC ([1]; souche C03P009): 0.5 µg/mL (≈ 1.18 µM)
- Classification (S) ou (R) en MH ([1]; souche C01P009): (S)
- Classification (S) ou (R) en MH ([1]; souche C01P010): (S)
- Classification (S) ou (R) en MH ([1]; souche C03P003): (S)
- Classification (S) ou (R) en MH ([1]; souche C03P004): (S)
- Classification (S) ou (R) en MH ([1]; souche C03P005): (S)
- Classification (S) ou (R) en MH ([1]; souche C03P009): (S)
- MIC ([2]; souche C01P009): 0.25 µg/mL (≈ 0.588 µM)
- MIC ([2]; souche C01P010): 2 µg/mL (≈ 4.71 µM)
- MIC ([2]; souche C03P003): 0.25 µg/mL (≈ 0.588 µM)
- MIC ([2]; souche C03P004): 0.25 µg/mL (≈ 0.588 µM)
- MIC ([2]; souche C03P005): 1 µg/mL (≈ 2.35 µM)
- MIC ([2]; souche C03P009): 0.5 µg/mL (≈ 1.18 µM)
- Classification (S) ou (R) en MP ([2]; souche C01P009): (S) (valeur de CMI mesurée dans un milieu plaie, exemple de milieu selon l'invention (MP) inférieure ou égale au seuil déterminé et peuvent être classifiées comme sensibles (noté S dans le tableau 5C))
- Classification (S) ou (R) en MP ([2]; souche C01P010): (R) (valeur de CMI mesurée dans un milieu plaie, exemple de milieu selon l'invention (MP), supérieure au seuil et peuvent être classifiées comme résistantes (noté R dans le tableau 5C))
- Classification (S) ou (R) en MP ([2]; souche C03P003): (S) (valeur de CMI mesurée dans un milieu plaie, exemple de milieu selon l'invention (MP) inférieure ou égale au seuil déterminé et peuvent être classifiées comme sensibles (noté S dans le tableau 5C))
- Classification (S) ou (R) en MP ([2]; souche C03P004): (S) (valeur de CMI mesurée dans un milieu plaie, exemple de milieu selon l'invention (MP) inférieure ou égale au seuil déterminé et peuvent être classifiées comme sensibles (noté S dans le tableau 5C))
- Classification (S) ou (R) en MP ([2]; souche C03P005): (R) (valeur de CMI mesurée dans un milieu plaie, exemple de milieu selon l'invention (MP), supérieure au seuil et peuvent être classifiées comme résistantes (noté R dans le tableau 5C))
- Classification (S) ou (R) en MP ([2]; souche C03P009): (S) (valeur de CMI mesurée dans un milieu plaie, exemple de milieu selon l'invention (MP) inférieure ou égale au seuil déterminé et peuvent être classifiées comme sensibles (noté S dans le tableau 5C))

Molecule: amoxicilline / clavulanate de potassium [amoxicilline/clavulanate de potassium]
- CMI en milieu MH ([1]; souche C01P012): 0,25 mg/L / µg/L
- Classification (S) ou (R) en MH ([1]; souche C01P012): (S)
- CMI en milieu MH ([1]; souche C03P001): 0,25 mg/L / µg/L
- Classification (S) ou (R) en MH ([1]; souche C03P001): (S)
- CMI en milieu MH ([1]; souche C03P008): 0,5 mg/L / µg/L
- Classification (S) ou (R) en MH ([1]; souche C03P008): (S)
- CMI en milieu MH ([1]; souche C04P003): 0,25 mg/L / µg/L
- Classification (S) ou (R) en MH ([1]; souche C04P003): (S)
- CMI en milieu MH ([1]; souche C04P005f): 0,5 mg/L / µg/L
- Classification (S) ou (R) en MH ([1]; souche C04P005f): (S)
- CMI en milieu MH ([1]; souche C04P005i): 0,5 mg/L / µg/L
- Classification (S) ou (R) en MH ([1]; souche C04P005i): (S)
- CMI en milieu MH ([1]; souche C04P007): 0,25 mg/L / µg/L
- Classification (S) ou (R) en MH ([1]; souche C04P007): (S)
- CMI en milieu MH ([1]; souche C06P001f): 0,25 mg/L / µg/L
- Classification (S) ou (R) en MH ([1]; souche C06P001f): (S)
- CMI en milieu MH ([1]; souche C06P001 i): 0,25 mg/L / µg/L
- Classification (S) ou (R) en MH ([1]; souche C06P001 i): (S)
- CMI en milieu MH ([1]; souche C06P003f): 0,25 mg/L / µg/L
- Classification (S) ou (R) en MH ([1]; souche C06P003f): (S)
- CMI en milieu MH ([1]; souche C06P003i): 0,25 mg/L / µg/L
- Classification (S) ou (R) en MH ([1]; souche C06P003i): (S)
- CMI en milieu plaie MP ([2]; souche C01P012): 0,25 mg/L / µg/L
- Classification (S) ou (R) en MP ([2]; souche C01P012): (S) (valeur de CMI mesurés dans l'exemple de milieu selon l'invention (MP), inférieure ou égale au seuil et ont été et peuvent être classifiées comme sensibles (noté S dans le tableau 5A))
- CMI en milieu plaie MP ([2]; souche C03P001): 0,5 mg/L / µg/L
- Classification (S) ou (R) en MP ([2]; souche C03P001): (S) (valeur de CMI mesurés dans l'exemple de milieu selon l'invention (MP), inférieure ou égale au seuil et ont été et peuvent être classifiées comme sensibles (noté S dans le tableau 5A))
- CMI en milieu plaie MP ([2]; souche C03P008): 1 mg/L / µg/L
- Classification (S) ou (R) en MP ([2]; souche C03P008): (R) (valeur de CMI mesurée dans l'exemple de milieu selon l'invention (MP) supérieure au seuil et peuvent être classifiées comme résistantes (noté R dans le tableau 5A))
- CMI en milieu plaie MP ([2]; souche C04P003): 0,25 mg/L / µg/L
- Classification (S) ou (R) en MP ([2]; souche C04P003): (S) (valeur de CMI mesurés dans l'exemple de milieu selon l'invention (MP), inférieure ou égale au seuil et ont été et peuvent être classifiées comme sensibles (noté S dans le tableau 5A))
- CMI en milieu plaie MP ([2]; souche C04P005f): 0,5 mg/L / µg/L
- Classification (S) ou (R) en MP ([2]; souche C04P005f): (S) (valeur de CMI mesurés dans l'exemple de milieu selon l'invention (MP), inférieure ou égale au seuil et ont été et peuvent être classifiées comme sensibles (noté S dans le tableau 5A))
- CMI en milieu plaie MP ([2]; souche C04P005i): 0,5 mg/L / µg/L
- Classification (S) ou (R) en MP ([2]; souche C04P005i): (S) (valeur de CMI mesurés dans l'exemple de milieu selon l'invention (MP), inférieure ou égale au seuil et ont été et peuvent être classifiées comme sensibles (noté S dans le tableau 5A))
- CMI en milieu plaie MP ([2]; souche C04P007): 1 mg/L / µg/L
- Classification (S) ou (R) en MP ([2]; souche C04P007): (R) (valeur de CMI mesurée dans l'exemple de milieu selon l'invention (MP) supérieure au seuil et peuvent être classifiées comme résistantes (noté R dans le tableau 5A))
- CMI en milieu plaie MP ([2]; souche C06P001f): 2 mg/L / µg/L
- Classification (S) ou (R) en MP ([2]; souche C06P001f): (R) (valeur de CMI mesurée dans l'exemple de milieu selon l'invention (MP) supérieure au seuil et peuvent être classifiées comme résistantes (noté R dans le tableau 5A))
- CMI en milieu plaie MP ([2]; souche C06P001 i): 4 mg/L / µg/L
- Classification (S) ou (R) en MP ([2]; souche C06P001 i): (R) (valeur de CMI mesurée dans l'exemple de milieu selon l'invention (MP) supérieure au seuil et peuvent être classifiées comme résistantes (noté R dans le tableau 5A))
- CMI en milieu plaie MP ([2]; souche C06P003f): 1 mg/L / µg/L
- Classification (S) ou (R) en MP ([2]; souche C06P003f): (R) (valeur de CMI mesurée dans l'exemple de milieu selon l'invention (MP) supérieure au seuil et peuvent être classifiées comme résistantes (noté R dans le tableau 5A))
- CMI en milieu plaie MP ([2]; souche C06P003i): 2 mg/L / µg/L
- Classification (S) ou (R) en MP ([2]; souche C06P003i): (R) (valeur de CMI mesurée dans l'exemple de milieu selon l'invention (MP) supérieure au seuil et peuvent être classifiées comme résistantes (noté R dans le tableau 5A))
